Reference: US9884048B2, “ERK inhibitors” (Merck Sharp & Dohme Corp., priority 2014, dated 2018)

molecular target: phosphorylated active hERK2 enzyme (Homo sapiens (Human), UniProt P28482); conditions: not given
Sequence (P28482 whole entry): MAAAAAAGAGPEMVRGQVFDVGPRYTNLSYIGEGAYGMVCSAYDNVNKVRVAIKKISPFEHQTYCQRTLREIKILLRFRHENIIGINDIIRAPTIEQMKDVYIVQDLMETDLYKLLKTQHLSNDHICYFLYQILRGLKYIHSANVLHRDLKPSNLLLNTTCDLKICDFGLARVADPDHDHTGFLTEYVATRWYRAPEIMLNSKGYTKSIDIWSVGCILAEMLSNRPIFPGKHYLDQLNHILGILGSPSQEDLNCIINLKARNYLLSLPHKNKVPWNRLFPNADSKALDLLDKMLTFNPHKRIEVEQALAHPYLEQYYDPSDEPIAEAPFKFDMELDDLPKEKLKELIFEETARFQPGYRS

| Structure (SMILES) | IC50 |
| --- | --- |
| Cc1cc(-n2ncc3cc(NC(=O)N[C@@H](c4ccccc4)C(C)(C)O)nc(CO)c32)ccn1 [Example 254, 1-[7-(hydroxymethyl)-1-(2-methylpyridin-4-yl)-1H-pyrazolo[3,4-c]pyridin-5-yl]-3-[(1S)-2-hydroxy-2-methyl-1-phenylpropyl]urea] | 4.29 nM |

same assay, conditions: read-out: ERK2 IC50; IMAP-FP assay; 0.5 nM hERK2, 30 μM ATP; 10 point titration, 3 μM starting concentration

| Structure (SMILES) | IC50 |
| --- | --- |
| COCc1nc(NC(=O)N[C@H](C)c2ccccc2)cc2cnn(-c3ccnc(C)c3)c12 [Example 247, 1-[7-(methoxymethyl)-1-(2-methylpyridin-4-yl)-1H-pyrazolo[3,4-c]pyridin-5-yl]-3-[(1R)-1-phenylethyl]urea] | 11.1 nM |
| COCCOCc1nc(NC(=O)N[C@H](C)c2ccccc2)cc2cnn(-c3ccnc(C)c3)c12 [Example 248, 1-{7-[(2-methoxyethoxy)methyl]-1-(2-methylpyridin-4-yl)-1H-pyrazolo[3,4-c]pyridin-5-yl}-3-[(1R)-1-phenylethyl]urea] | 11.4 nM |
| Cc1cc(-n2ncc3cc(NC(=O)N[C@H](C)c4ccccc4)nc(COCCN4CCOCC4)c32)ccn1 [Example 249, 1-{1-(2-methylpyridin-4-yl)-7-[(2-morpholin-4-ylethoxy)methyl]-1H-pyrazolo[3,4-c]pyridin-5-yl}-3-[(1R)-1-phenylethyl]urea] | 127 nM |
| Cc1cc(-n2ncc3cc(NC(=O)N[C@H](C)c4ccccc4)nc(COC4COC4)c32)ccn1 [Example 250, 1-{1-(2-methylpyridin-4-yl)-7-[(oxetan-3-yloxy)methyl]-1H-pyrazolo[3,4-c]pyridin-5-yl}-3-[(1R)-1-phenylethyl]urea] | 25 nM |
| Cc1cc(-n2ncc3cc(NC(=O)N[C@H](C)c4ccccc4)nc(C)c32)ccn1 [Example 251, 1-[7-methyl-1-(2-methylpyridin-4-yl)-1H-pyrazolo[3,4-c]pyridin-5-yl]-3-[(1R)-1-phenylethyl]urea] | 2.81 nM |
| Cc1cc(-n2ncc3cc(NC(=O)N[C@H](C)c4ccccc4)nc(COCCOCc4ccccc4)c32)ccn1 [Example 252, 1-[7-{[2-(benzyloxy)ethoxy]methyl}-1-(2-methylpyridin-4-yl)-1H-pyrazolo[3,4-c]pyridin-5-yl]-3-[(1R)-1-phenylethyl]urea] | 25.3 nM |
| Cc1cc(-n2ncc3cc(NC(=O)N[C@H](C)c4ccccc4)nc(COCCO)c32)ccn1 [Example 253, 1-{7-[(2-hydroxyethoxy)methyl]-1-(2-methylpyridin-4-yl)-1H-pyrazolo[3,4-c]pyridin-5-yl}-3-[(1R)-1-phenylethyl]urea] | 23.4 nM |
| C[C@@H](NC(=O)Nc1cc2cnn(C(C)(C)C)c2c(CO)n1)c1ccccc1 [Example 255, 1-[1-tert-butyl-7-(hydroxymethyl)-1H-pyrazolo[3,4-c]pyridin-5-yl]-3-[(1R)-1-phenylethyl]urea] | 1260 nM |
| CCn1ncc2cc(NC(=O)N[C@H](C)c3ccccc3)nc(OC)c21 [Example 256, 1-(1-ethyl-7-methoxy-1H-pyrazolo[3,4-c]pyridin-5-yl)-3-[(1R)-1-phenylethyl]urea] | 100 nM |
| CCn1ncc2cc(NC(=O)N[C@@H](c3ccccc3)C(C)(C)O)nc(OC)c21 [Example 257, 1-(1-ethyl-7-methoxy-1H-pyrazolo[3,4-c]pyridin-5-yl)-3-[(1S)-2-hydroxy-2-methyl-1-phenylpropyl]urea] | 44.9 nM |
| CCn1ncc2cc(NC(=O)N[C@H](C)c3ccccc3)nc(OCCO)c21 [Example 258, 1-[1-ethyl-7-(2-hydroxyethoxy)-1H-pyrazolo[3,4-c]pyridin-5-yl]-3-[(1R)-1-phenylethyl]urea] | 35.3 nM |
| COC[C@@H](NC(=O)Nc1cc2cnn(C3CCOCC3)c2cn1)c1ccccc1 [Example 259, (S)-1-(2-methoxy-1-phenylethyl)-3-(1-(tetrahydro-2H-pyran-4-yl)-1H-pyrazolo[3,4-c]pyridin-5-yl)urea] | 196 nM |
| COC[C@@H](NC(=O)Nc1cc2cnn(Cc3ccncc3)c2cn1)c1ccccc1 [Example 260, 1-[(1S)-2-methoxy-1-phenylethyl]-3-[1-(pyridin-4-ylmethyl)-1H-pyrazolo[3,4-c]pyridin-5-yl]urea] | 30.9 nM |
| O=C(Nc1cc2cnn(Cc3ccncc3)c2cn1)N[C@H](CO)c1ccccc1 [Example 261, 1-[(1S)-2-hydroxy-1-phenylethyl]-3-[1-(pyridin-4-ylmethyl)-1H-pyrazolo[3,4-c]pyridin-5-yl]urea] | 2430 nM |
| CO[C@@H]1CN(Cc2cccnc2)C[C@H]1NC(=O)Nc1cc2cnn(-c3ccnc(C)c3)c2cn1 [Example 262, 1-((3R,4R)-4-methoxy-1-(pyridin-3-ylmethyl)pyrrolidin-3-yl)-3-(1-(2-methylpyridin-4-yl)-1H-pyrazolo[3,4-c]pyridin-5-yl)urea] | 253 nM |
| Cc1cc(-n2ncc3cc(NC(=O)NCC4CNC4)ncc32)ccn1 [Example 263, 1-(azetidin-3-ylmethyl)-3-(1-(2-methylpyridin-4-yl)-1H-pyrazolo[3,4-c]pyridin-5-yl)urea] | 102 nM |
| Cc1cc(-n2ncc3cc(NC(=O)NCC4CN(C)C4)ncc32)ccn1 [Example 264, 1-((1-methylazetidin-3-yl)methyl)-3-(1-(2-methylpyridin-4-yl)-1H-pyrazolo[3,4-c]pyridin-5-yl)urea] | 70 nM |

| Structure (SMILES) | IC50 |
| --- | --- |
| Cc1cc(-n2ncc3cc(NC(=O)NC4CCCN(Cc5cccnc5)C4)ncc32)ccn1 (stereo not shown) [Example 265] | 115 nM |
| Cc1cc(-n2ncc3cc(NC(=O)NC4CCCN(Cc5c(F)cccc5F)C4)ncc32)ccn1 (stereo not shown) [Example 266, 1-[1-(2,6-difluorobenzyl)piperidin-3-yl]-3-[1-(2-methylpyridin-4-yl)-1H-pyrazolo[3,4-c]pyridin-5-yl]urea] | 2.78 nM |
| Cc1cc(-n2ncc3cc(NC(=O)NC4CCCN(Cc5nccs5)C4)ncc32)ccn1 (stereo not shown) [Example 267, 1-[1-(2-methylpyridin-4-yl)-1H-pyrazolo[3,4-c]pyridin-5-yl]-3-[1-(1,3-thiazol-2-ylmethyl)piperidin-3-yl]urea] | 22.2 nM |
| Cc1cc(-n2ncc3cc(NC(=O)NC4CCCN(Cc5cccnc5Cl)C4)ncc32)ccn1 (stereo not shown) [Example 268, 1-{1-[(2-chloropyridin-3-yl)methyl]piperidin-3-yl}-3-[1-(2-methylpyridin-4-yl)-1H-pyrazolo[3,4-c]pyridin-5-yl]urea] | 18.6 nM |
| CO[C@H]1CN(Cc2c(F)cccc2F)C[C@@H]1NC(=O)Nc1cc2cnn(-c3ccnc(C)c3)c2cn1 [Example 269, 1-[(3S,4S)-1-(2,6-difluorobenzyl)-4-methoxypyrrolidin-3-yl]-3-[1-(2-methylpyridin-4-yl)-1H-pyrazolo[3,4-c]pyridin-5-yl]urea] | 5.39 nM |
| Cc1cc(-n2ncc3cc(NC(=O)NC4CCN(Cc5cccnc5)C4)ncc32)ccn1 (stereo not shown) [Example 270, 1-[1-(2-methylpyridin-4-yl)-1H-pyrazolo[3,4-c]pyridin-5-yl]-3-[1-(pyridin-3-ylmethyl)-pyrrolidin-3-yl]urea] | 45.3 nM |
| Cc1cc(-n2ncc3cc(NC(=O)NC4CCN(Cc5c(F)cccc5F)C4)ncc32)ccn1 (stereo not shown) [Example 271, 1-[1-(2,6-difluorobenzyl)pyrrolidin-3-yl]-3-[1-(2-methylpyridin-4-yl)-1H-pyrazolo[3,4-c]pyridin-5-yl]urea] | 0.997 nM |
| CCO[C@H]1CNC[C@@H]1NC(=O)Nc1cc2cnn(-c3ccnc(C)c3)c2cn1 [Example 272, 1-[(3S,4S)-4-ethoxypyrrolidin-3-yl]-3-[1-(2-methylpyridin-4-yl)-1H-pyrazolo[3,4-c]pyridin-5-yl]urea] | 39.9 nM |
| Cc1cc(-n2ncc3cc(NC(=O)N[C@H]4CNC[C@@H]4Oc4cncc(F)c4)ncc32)ccn1 [Example 275, 1-{(3S,4S)-4-[(5-fluoropyridin-3-yl)oxy]pyrrolidin-3-yl}-3-[1-(2-methylpyridin-4-yl)-1H-pyrazolo[3,4-c]pyridin-5-yl]urea] | 327 nM |
| Cc1cc(-n2ncc3cc(NC(=O)N[C@H]4CN(C)C[C@@H]4Oc4cncc(F)c4)ncc32)ccn1 [Example 276, 1-{(3S,4S)-4-[(5-fluoropyridin-3-yl)oxy]-1-methylpyrrolidin-3-yl}-3-[1-(2-methylpyridin-4-yl)-1H-pyrazolo[3,4-c]pyridin-5-yl]urea] | 242 nM |
| CCN1C[C@H](NC(=O)Nc2cc3cnn(-c4ccnc(C)c4)c3cn2)[C@@H](Oc2cncc(F)c2)C1 [Example 277, 1-{(3S,4S)-1-ethyl-4-[(5-fluoropyridin-3-yl)oxy]pyrrolidin-3-yl}-3-[1-(2-methylpyridin-4-yl)-1H-pyrazolo[3,4-c]pyridin-5-yl]urea] | 594 nM |
| CCO[C@H]1CN(Cc2c(F)cccc2F)C[C@@H]1NC(=O)Nc1cc2cnn(-c3ccnc(C)c3)c2cn1 [Example 278, 1-[(3S,4S)-1-(2,6-difluorobenzyl)-4-ethoxypyrrolidin-3-yl]-3-[1-(2-methylpyridin-4-yl)-1H-pyrazolo[3,4-c]pyridin-5-yl]urea] | 45.3 nM |
| CCO[C@H]1CN(Cc2ccccc2C(F)(F)F)C[C@@H]1NC(=O)Nc1cc2cnn(-c3ccnc(C)c3)c2cn1 [Example 279, 1-{(3S,4S)-4-ethoxy-1-[2-(trifluoromethyl)benzyl]pyrrolidin-3-yl}-3-[1-(2-methylpyridin-4-yl)-1H-pyrazolo[3,4-c]pyridin-5-yl]urea] | 1750 nM |
| Cc1cc(-n2ncc3cc(NC(=O)NC4CCN(Cc5ccccc5C#N)C4)ncc32)ccn1 (stereo not shown) [Example 280, 1-[1-(2-cyanobenzyl)pyrrolidin-3-yl]-3-[1-(2-methylpyridin-4-yl)-1H-pyrazolo[3,4-c]pyridin-5-yl]urea] | 4.35 nM |
| Cc1cc(-n2ncc3cc(NC(=O)NC4CCN(Cc5cccnc5Cl)C4)ncc32)ccn1 (stereo not shown) [Example 281, 1-{1-[(2-chloropyridin-3-yl)methyl]pyrrolidin-3-yl}-3-[1-(2-methylpyridin-4-yl)-1H-pyrazolo[3,4-c]pyridin-5-yl]urea] | 2.84 nM |
| Cc1cc(-n2ncc3cc(NC(=O)N[C@H]4CCN(Cc5c(F)cccc5F)C4)ncc32)ccn1 [Example 282, 1-[(3S)-1-(2,6-difluorobenzyl)pyrrolidin-3-yl]-3-[1-(2-methylpyridin-4-yl)-1H-pyrazolo[3,4-c]pyridin-5-yl]urea] | 169 nM |
